Data reported in patent US20170273917A1, “NMDA RECEPTOR ANTAGONISTS FOR TREATING GAUCHER DISEASE” (Yeda Research and Development Co. Ltd., priority 2014, published 2017).

Tests used:
[1] = tested on: inbred mouse strains; experiment: Survival of inbred mouse strains injected daily with CBE (GD induction); format: in vivo; settings: for Average survival time: CBE 25 mg/kg/day i.p. daily from P8
Description: Mice—Pure inbred mouse strains were obtained from the Jackson laboratories (USA), Harlan UK and Harlan Israel. Specifically, BTBR T^+ Itpr3^tf/J C3H/HeJ, DBA/2J, MRL/MpJ, WSB/EiJ, MOLF/Ei, PWD/PhJ, KK/HiJ, BPL/1J, I/LnJ, BPN/3J, and LP/J were obtained from Jackson; A/J, AKR/J, NZW/LacJ, 129S1/SvImJ were obtained from Harlan laboratories in the UK; and C57BL/6JOlaHsd, BALB/cJ and FVB/NJ were obtained from the Harlan laboratories in Israel. Gba^flox/flox; nestin-Cre mice, a mouse model of GD were generated as described in Vitner et al. Nature Medicine (2014) 20: 204-208; and Enquist, I. B. et al. Proc. Natl. Acad. Sci. USA (2007) 104: 17483-17488. These mice recapitulate many features of human nGD, although their Gba1 deficiency is restricted to neural and macroglial lineages. Mice were maintained under specific pathogen-free conditions and handled according to protocols approved by the Weizmann Institute Animal Care Committee according to international guidelines.
CBE injections—Conduritol-β-epoxide (CBE) was obtained from Calbiochem Millipore (Darmstadt, Germany). CBE at a dose of 25 mg or 50 mg per kg body weight per day or PBS (control) were administered i.p. to mice daily starting from postnatal day 8 (P8) of age.
To study the potential of different mouse stains to serve as a reliable model for Type 2/3 GD, 15 different inbred mouse strains were chosen. CBE has been used to induce GD in mice for many years (Mumford et al., 1975), and it was used to generate the first animal model for GD disease. CBE is water soluble and crosses the blood brain barrier. The 15 mice strains chosen have diverse phylogenetic origins and their SNP profile is freely available (FIG. 1A). Mice were daily injected i.p. with 25 mg/kg/day of CBE starting on postnatal day 8 and for the rest of their lives (Vitner et al., 2014). […] The strains could be divided into two groups: mice in the first group were very homogeneous in their behavior; they developed a very aggressive disease with a short life span. The second group of strains presented a much longer life expectancy with a broader spectrum of phenotypes.

[2] = tested on: Grin2b; experiment: Cortical Grin2b mRNA levels by qPCR; format: in vivo, mouse; settings: 10 days CBE vs PBS; short living (A/J, C57BL6/JolaHsd) and long living (NZW, FVB) strains
Procedure: RNA extraction and quantitative PCR Following treatment, mice were sacrificed and their brains removed, placed on a Young Mouse Brain Slicer Matrix (BSMYS001-1, Zivic instruments, Pittsburgh, Pa., USA) and cut into 1 mm coronal sections. The cerebral cortex was separated using a spatula and snap-frozen in liquid N2 and stored at −80° C. Total RNA was isolated using the RNeasy mini kit (Qiagen GmbH, Hilden, Germany) according to manufacturer's instructions. Quantitative polymerase chain reaction (Q-PCR) was performed using PerfeCTa SYBR Green FastMix (Quanta BioSciences, Gaithersburg, Md., USA) and an ABI Prism 7300 Sequence Detection System (Applied Biosystems, Foster City, Calif., USA). […] Fold-change in mRNA levels was calculated using the comparative cycle threshold method using TATA box binding protein (TBP) for normalization. P-values were calculated using a two-tailed, two-independent sample Student's t-test. […]
Based on the predictive studies described above, the involvement of Grin2b in the pathogenesis of neuropathic GD was evaluated. […] Since non-coding SNPs can regulate the expression of quantitative trait locus (QTL), the mRNA levels of Grin2b were determined by qPCR. […] The transcript levels was determined in 2 short living (A/J and C57BL6/JolaHsd) and 2 long living strains (NZW and FVB) 10 days following PBS or CBE treatment.

[3] = tested on: rat hippocampal neurons; settings: rat hippocampal neurons treated with CBE; high concentrations of glutamate; in vitro; cited from earlier work

O[C@H]1[C@H](O)[C@@H](O)[C@@H]2O[C@@H]2[C@@H]1O [CBE, Conduritol-β-epoxide]
Average survival time ([1]; 129S1/SvImJ mice): 108 days
Average survival time ([1]; A/J mice): 23 days
Average survival time ([1]; AKR/J mice): 24 days
average mortality on day ([1]; AKR/J mice, CBE-treated): 24 days
Average survival time ([1]; BALB/cJ mice): 130 days
Average survival time ([1]; BTBR T+ITPR3TF/J mice): 199 days
100% mortality on day ([1]; BTBR T+ITPR3TF/J mice, CBE-treated): 199 days
Average survival time ([1]; C3H/HeJ mice): 24 days
Average survival time ([1]; C57BL6/JolaHsd mice): 29 days
Average survival time ([1]; DBA/2J mice): 26 days
Average survival time ([1]; FVB/NJ mice): 106 days
Average survival time ([1]; KK/HlJ mice): 143 days
Average survival time ([1]; MOLF/Ei mice): 41 days
Average survival time ([1]; MRL/MpJ mice): 30 days
Average survival time ([1]; NZW/LacJ mice): 84 days
Average survival time ([1]; PWD/Ph mice): 119 days
Average survival time ([1]; WSB/EiJ mice): 38 days
Grin2b expression levels (cortical mRNA, qPCR) [2]: increased only in the short-living strains
sensitivity of neurons to glutamate toxicity [3]: more sensitive to the toxic effects of high concentrations of glutamate
